{"source": "paper PMC8913831", "about": "(Scientific Reports, 2022)", "target": "T1, CbCBP (cellobiose phosphorylase) (Caldicellulosiruptor bescii, UniProt A0ABY1SBL4)", "T1 construct": "gene SAMN05216240_2653; C-terminal (His)6 tag, pET20b, E. coli BL21 CodonPlus-RIL; 94 kDa on SDS-PAGE, about 200 kDa native (homodimer); GH94", "T1 sequence (A0ABY1SBL4 1-811)": "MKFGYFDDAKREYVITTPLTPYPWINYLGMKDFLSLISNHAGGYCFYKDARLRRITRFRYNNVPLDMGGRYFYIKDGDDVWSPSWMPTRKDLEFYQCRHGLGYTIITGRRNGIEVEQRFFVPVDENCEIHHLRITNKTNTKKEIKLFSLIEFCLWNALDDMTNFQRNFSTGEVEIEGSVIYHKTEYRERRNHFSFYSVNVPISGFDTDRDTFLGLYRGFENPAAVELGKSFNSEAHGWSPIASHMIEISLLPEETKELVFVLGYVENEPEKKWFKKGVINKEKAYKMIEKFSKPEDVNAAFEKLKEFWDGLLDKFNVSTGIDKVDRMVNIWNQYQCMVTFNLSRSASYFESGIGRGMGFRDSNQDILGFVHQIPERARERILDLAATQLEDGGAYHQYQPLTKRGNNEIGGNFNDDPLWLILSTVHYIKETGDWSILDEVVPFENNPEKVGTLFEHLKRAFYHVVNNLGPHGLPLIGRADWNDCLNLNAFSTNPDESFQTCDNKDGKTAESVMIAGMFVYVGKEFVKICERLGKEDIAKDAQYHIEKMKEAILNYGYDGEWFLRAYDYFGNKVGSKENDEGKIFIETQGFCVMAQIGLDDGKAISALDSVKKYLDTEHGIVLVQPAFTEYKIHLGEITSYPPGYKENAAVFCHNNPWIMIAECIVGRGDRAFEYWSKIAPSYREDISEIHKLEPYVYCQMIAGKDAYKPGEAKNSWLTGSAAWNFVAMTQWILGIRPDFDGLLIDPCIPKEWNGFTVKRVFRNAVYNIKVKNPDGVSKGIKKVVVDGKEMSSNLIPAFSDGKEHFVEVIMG", "assay": "initial velocity, D-glucose release (glucose oxidase-peroxidase), fit to ordered Bi Bi equation", "type": "biochemical", "conditions": "phosphorolysis; substrate constant of the ordered Bi Bi rate equation with A = cellobiose, not an inhibitor constant; text states Pi binds first; MES-NaOH pH 7.0; 75 °C in Methods, 70 °C in Results", "text": "initial velocity, D-glucose release (glucose oxidase-peroxidase), fit to ordered Bi Bi equation on CbCBP (cellobiose phosphorylase)"}
{"compound": "OC[C@H]1O[C@@H](O[C@H]2[C@H](O)[C@@H](O)C(O)O[C@@H]2CO)[C@H](O)[C@@H](O)[C@@H]1O", "note": "(stereo partly shown) [cellobiose]", "values": [{"measurement": "Ki^A", "value": 3.3, "unit": "mM"}]}
